Reference: patent publication US20060165744A1, “Combination liposomal formulations” (NeoPharm, Inc, priority 2003, published 2006)

What was measured:
[1] = Percent entrapment of doxorubicin or mitoxantrone in reconstituted LEP (Sephardex G-25 column, UV absorbance); type: physicochemical
Procedure: Either doxorubicin (0.5 to 1.5 mg/ml) or mitoxantrone (0.5 to 1.5 mg/ml) was dissolved in deionized water, and these solutions were employed to reconstitute the lyophilized LEP cakes. The drug to lipid ratio varied from 1:120 to 1:24 (wt/wt) for doxorubicin and 1:120 to 1:24 (wt/wt) for mitoxantrone. Following reconstitution, the liposomal preparation was subjected to column chromatography using Sephardex G-25 to separate the free doxorubicin or mitoxantrone from the drug bound to the liposomes. The pre and post column samples were solubilized in methanol and the absorbance values were measured at appropriate wavelengths. The absorbance of doxorubicin (480 nm) and mitoxantrone (660 nm) was measured in the formulations both prior to and after column chromatography, and the percent entrapment was calculated using the following equation: % entrapment=[absorbance of drug after column/absorbance of drug before column]×100

[2] = test system: SKVLB (Vincristine-resistant human ovarian) cells; experiment: Cytotoxicity by sulforhodamine B assay, SKVLB; type: cell-based; conditions: treated 48 hrs, read-out: GI50 values (mM) against drug-resistant cancer cell lines
Procedure: (§1) SKVLB (Vincristine-resistant human ovarian) cells were obtained from Georgetown University and maintained in RPMI 1640 medium containing 10% heat-inactivated FBS, penicillin (100 units/mL) and streptomycin ([…]) with […] Vincristine. P388/ADR (Adriamycin-resistant murine leukemia) cells were purchased from National Cancer Institute (Frederick, Md.) and maintained in RPMI 1640 medium containing 10% heat-inactivated FBS, penicillin (100 units/mL) and streptomycin ([…]). SKVLB cells were cultured in drug-free media for at least a week before studies. The cells (10,000 cells/well for SKVLB and 25,000 cells/well for P388/ADR) were plated in a 96-well plate overnight and treated with doxorubicin, LEP or LEPD for 48 hrs. After incubation, the cytotoxicity was determined by a sulforhodamine B assay.

[3] = test system: P388/ADR (Adriamycin-resistant murine leukemia) cells; experiment: Cytotoxicity by sulforhodamine B assay, P388/ADR; type: cell-based; conditions: Mus musculus, treated 48 hrs, read-out: GI50 values (mM) against drug-resistant cancer cell lines
Procedure: as §1

P388/ADR cells = experiment: Anti-tumor efficacy on tumor bearing mice (increase in lifespan); type: in vivo, CD2F1 female mice; conditions: 1.0 mg/kg DOX, I.V. for five consecutive days
Procedure: After 24 hours, mice were randomly divided into different treatment groups (5 mice/group) and vehicle controls or test article formulations were administered I.V. for five consecutive days. Injection volume was based on individual mouse body w eight. Mice were weighed prior to dosing on Days 1-5. […] Mean survival time (MST) was determined and the percent increase in lifespan (% ILS) was calculated as follows: % ILS=[(100×MST of Treatment Group)/(MST of Control Group)]−100% ILS≧25% is considered as a positive response.

[4] = Effect of mitoxantrone or doxorubicin loading on entrapment of paclitaxel in LEP-ETU; type: physicochemical
Procedure: Mitoxantrone or doxorubicin (0.5 to 1.5 mg) was loaded into LEP-ETU.

With `COc1cccc2c1C(=O)c1c(O)c3c(c(O)c1C2=O)C[C@@](O)(C(=O)CO)C[C@@H]3O[C@H]1C[C@H](N)[C@H](O)[C@H](C)O1` [Doxorubicin (DOX), doxorubicin] the “DOX % Entrapment UV 480 nm” value ([1]; Initial DOX concentration 0.50 mg/mL) was 93%, the “DOX % Entrapment UV 480 nm” value ([1]; Initial DOX concentration 0.75 mg/mL) was 92% and the “DOX % Entrapment UV 480 nm” value ([1]; Initial DOX concentration 1.00 mg/mL) was 90%. The “DOX % Entrapment UV 480 nm” value ([1]; Initial DOX concentration 1.50 mg/mL) was 78%, the GI50 [2] was 0.016 mM and the GI50 [3] was 0.015 mM. The “% ILS” value (P388/ADR cells) was 18.20%.

With `O=C1c2c(O)ccc(O)c2C(=O)c2c(NCCNCCO)ccc(NCCNCCO)c21` [MTO, mitoxantrone] the “MTO % Entrapment UV 660 nm” value ([1]; Initial MTO concentration 0.50 mg/mL) was 97%, the “MTO % Entrapment UV 660 nm” value ([1]; Initial MTO concentration 0.75 mg/mL) was 99% and the “MTO % Entrapment UV 660 nm” value ([1]; Initial MTO concentration 1.00 mg/mL) was 100%. For the same compound, the “MTO % Entrapment UV 660 nm” value ([1]; Initial MTO concentration 1.50 mg/mL) was 101%.

In the case of `CC(=O)O[C@H]1C(=O)[C@@]2(C)[C@H]([C@H](OC(=O)c3ccccc3)[C@]3(O)C[C@H](OC(=O)[C@H](O)[C@@H](NC(=O)c4ccccc4)c4ccccc4)C(C)=C1C3(C)C)[C@]1(OC(C)=O)CO[C@@H]1C[C@@H]2O` [Paclitaxel, paclitaxel], the “Paclitaxel Entrapment (%) With DOX” value ([4]; Initial DOX 0.50 mg/mL) is reported as 102%, the “Paclitaxel Entrapment (%) With DOX” value ([4]; Initial DOX 0.75 mg/mL) is reported as 102% and the “Paclitaxel Entrapment (%) With DOX” value ([4]; Initial DOX 1.00 mg/mL) is reported as 102%. The “Paclitaxel Entrapment (%) With DOX” value ([4]; Initial DOX 1.50 mg/mL) was 109%.
